# Results published in US10526389B2, “Peptides and combinations of peptides for use in immunotherapy against lung cancer, including NSCLC and other cancers” (Immatics Biotechnologies GmbH, priority 2015, dated 2020).
# How the values were obtained:
# CD4+ T cells = assay: HLA class II T-cell proliferation assay (ProImmune, CFSE); type: cell-based, human; details: 7 days; for Number of positive donors: 21 donor samples, positive = over 0.02% stimulation above background; for Number of positive donors / Strength of response: mean in % above the background: 5 μM peptide; for Strength of response: mean in % above the background: CD4+ T-cell proliferation (CFSE)
# From the text: The experiments as follows summarize the results of T-cell Proliferation Assays of selected MHC class II TUMAPs. Nine of 10 tested peptide antigens tested positive for immunogenicity. […] Individual peptide antigens stimulated the CD4+ T-cell proliferation in up to 6 donors. […] Thus, it can be concluded that the newly tested peptides also have a high potential to induce T-cell responses in vaccine trials.
# In order to characterize selected peptides for their potential especially as vaccine candidates, their in vitro immunogenicity was determined by analysis of T-cell proliferation using a commercial T-cell Proliferation Assay from the company ProImmune.
# Healthy donor CD8-depleted blood cells samples were tested with the selected peptides. The peptides that induce the proliferation of CD4+ T cells can potentially result in the development of a helper T-cell immune response, and therefore are considered to be immunogenic. The proliferation of CD4+ T cells was determined using carboxyfluorescein succinimidyl ester (CFSE) labelling. In proliferating cells, CFSE is distributed evenly to dividing cells. Thus, the proliferation can be measured as a decrease in CFSE fluorescence in the cells as analyzed.
# Peripheral blood mononuclear cell (PBMC) samples from healthy human donors were selected from the ProImmune cell bank based on HLA-DRB1 allele expression. CD8^+ T-cells were depleted from donor blood samples prior to use to avoid a false-positive response. The remaining CD4^+ T cells were labelled with CFSE and subsequently incubated with 5 μM of each selected peptide. Each peptide was tested in six replicated wells. The background was measured on each plate in six unstimulated control wells.
# After an incubation period of 7 days the cells were co-stained with anti-CD4 antibody and analyzed by flow cytometry. The degree of proliferation was determined by measuring a reduction in CFSE intensity.
# The evaluation of flow cytometric data was performed using FlowJo Software (Tree Star, Inc.). The results of flow cytometric analysis were expressed as the ratio of the CD4^+ dim population to the total CD4^+ population. The degree of proliferation was expressed as percentage of stimulation above background, i.e. proportion of antigen stimulated CD4^+ CFSE dim cells minus the proportion of CD4^+ CFSE dim cells from unstimulated control wells. For each sample, a mean and the corresponding standard error of the mean (SEM) of the six replicates were calculated.
# Donors were chosen by HLA-DRB1 allele expression. The other two HLA class II loci (DQ and DP) have not been included into the analysis. The interesting DRB1 alleles were selected according to the frequencies of predicted peptide binding based on […] algorithm (Rammensee et al., 1999). For HLA-DR, binding was defined by a […] binding prediction score equal or greater than 18. This threshold score for binding was defined based on the analysis of binding scores of known published promiscuous HLA-DR ligands (Table 24).
# All DRB1 alleles with binding frequency over 20% over all selected peptides were requested to be included into the donor panel) by ProImmune. 4 other rare DRB1 alleles (DRB1*10:01, DRB1*16:01, DRB1*08:01, and DRB1*13:03) were requested additionally.
# The antigen-stimulated proliferation of CD4^+ T cells was considered as an indicator of in vitro immunogenicity and was investigated in a commercially available T-cell Proliferation Assay from ProImmune. The degree of antigen-stimulated CD4^+ T-cell proliferation was expressed as a percentage of stimulation above background. A response over 0.02% stimulation above background with SEM=2 (i.e. values two standard errors greater than background) was considered to be positive.
# CD8+ T cells = assay: In vitro immunogenicity of HLA-A*24 peptides (CD8+ T-cell priming with aAPCs, multimer staining); type: cell-based, human
# Method: In order to obtain information regarding the immunogenicity of the TUMAPs of the present invention, the inventors performed investigations using an in vitro T-cell priming assay based on repeated stimulations of CD8+ T cells with artificial antigen presenting cells (aAPCs) loaded with peptide/MHC complexes and anti-CD28 antibody.
# Generation of pMHC/anti-CD28 coated beads, T-cell stimulations and readout was performed in a highly defined in vitro system using four different pMHC molecules per stimulation condition and 8 different pMHC molecules per readout condition.
# The purified co-stimulatory mouse IgG2a anti human CD28 Ab 9.3 (Jung et al., 1987) was chemically biotinylated using Sulfo-N-hydroxysuccinimidobiotin as recommended by the manufacturer (Perbio, Bonn, Germany). Beads used were 5.6 μm diameter streptavidin coated polystyrene particles (Bangs Laboratories, Illinois, USA).
# 800.000 beads/200 μl were coated in 96-well plates in the presence of 4×12.5 ng different biotin-pMHC, washed and 600 ng biotin anti-CD28 were added subsequently in a volume of 200 μl. Stimulations were initiated in 96-well plates by co-incubating 1×10^6 CD8+ T cells with 2×10^5 washed coated beads in 200 μl TCM supplemented with 5 ng/ml IL-12 (PromoCell) for 3 days at 37° C. Half of the medium was then exchanged by fresh TCM supplemented with 80 U/ml IL-2 and incubating was continued for 4 days at 37° C. This stimulation cycle was performed for a total of three times. For the pMHC multimer readout using 8 different pMHC molecules per condition, a two-dimensional combinatorial coding approach was used as previously described (Andersen et al., 2012) with minor modifications encompassing coupling to 5 different fluorochromes. Finally, multimeric analyses were performed by staining the cells with Live/dead near IR dye (Invitrogen, Karlsruhe, Germany), CD8-FITC antibody clone SK1 (BD, Heidelberg, Germany) and fluorescent pMHC multimers. For analysis, a BD LSRII SORP cytometer equipped with appropriate lasers and filters was used. Peptide specific cells were calculated as percentage of total CD8+ cells. Evaluation of multimeric analysis was done using the FlowJo software (Tree Star, Oregon, USA). In vitro priming of specific multimer+CD8+ lymphocytes was detected by comparing to negative control stimulations.
# Exemplary flow cytometry results after TUMAP-specific multimer staining for 3 peptides of the invention are shown in FIGS. 3A-3E together with corresponding negative controls.
Substance,Number of positive donors (CD4+ T cells),Strength of response: mean in % above the background (CD4+ T cells),"tested positive for immunogenicity (antigen-stimulated CD4+ T-cell proliferation) (CD4+ T cells; positive: >0.02% stimulation above background, 5 uM peptide)",in vitro immunogenicity: donors (CD8+ T cells),in vitro immunogenicity: wells (CD8+ T cells)
POSTN-002 (TNGVIHVVDKLLYPADT; listed as Homo sapiens),2,0.39%,–,–,–
"TGFBI-004: IMA910 class II peptide, positive control with known in vivo immunogenicity (TPPIDAHTRNLLRNH; listed as Homo sapiens) [reference compound]",2,0.19%,–,–,–
MMP12-007 (LSADDIRGIQSLYGDPK; listed as Homo sapiens),2,0.28%,–,–,–
"MMP-001: IMA910 class II peptide, positive control with known in vivo immunogenicity (SQDDIKGIQKLYGKRS; listed as Homo sapiens) [reference compound]",2,0.09%,–,–,–
LAMC2-003 (DAVQMVITEAQKVDTR; listed as Homo sapiens),3,0.27%,–,–,–
ITGB6-001 (NPVSQVEILKNKPLSVG; listed as Homo sapiens),6,0.23%,–,–,–
FN1-002: selected HLA class II peptide antigen of the T-cell proliferation assay; probably the FN1 HLA-DR peptide SEQ ID No. 93 (SRPQAPITGYRIVYSPSV; listed as Homo sapiens),–,–,exception,–,–
COL5A2-001 (VARLPIIDLAPVDVGGTD; listed as Homo sapiens),2,0.21%,–,–,–
IGF2BP3-002 (KLYIGNLSENAAPS; listed as Homo sapiens),3,0.40%,–,–,–
COL11A1-001 (EGDIQQFLITGDPKAAYDY; listed as Homo sapiens),5,0.19%,–,–,–
LAMP3-002 (IQLIVQDKESVFSPR; listed as Homo sapiens),5,0.25%,–,–,–
COL1A2-001 (NKPSRLPFLDIAPLDIGGAD; listed as Homo sapiens),2,0.48%,–,–,–
LYQILQGIVF (listed as Homo sapiens) [SEQ ID No. 161],–,–,–,++++ (>= 70% = ++++),+ (<20% = +)
MREG-001 (RYLFVVDRL; listed as Homo sapiens),–,–,–,++++ (>= 70% = ++++),++++ (>= 70% = ++++)
ABCA13-003 (EYLPEFLHTF; listed as Homo sapiens),–,–,–,++ (20%-49% = ++),+ (<20% = +)
"CEA-006: IMA910 class II peptide, positive control with known in vivo immunogenicity (SPQYSWRINGIPQQHT; listed as Homo sapiens) [reference compound]",1,0.20%,–,–,–
PPTC-001 (HYFNTPFQL; listed as Homo sapiens),–,–,–,++++ (>= 70% = ++++),++ (20%-49% = ++)
OLFML2B-001 (YYGNTLVEF; listed as Homo sapiens),–,–,–,++++ (>= 70% = ++++),++ (20%-49% = ++)
KFLEHTNFEF (listed as Homo sapiens) [SEQ ID No. 39],–,–,–,++ (20%-49% = ++),+ (<20% = +)
MUC16-001 (TYSEKTTLF; listed as Homo sapiens),–,–,–,++ (20%-49% = ++),+ (<20% = +)
C6orf132-001 (RYGSPINTF; listed as Homo sapiens),–,–,–,+++ (50%-69% = +++),+ (<20% = +)
RYLEKFYGL (listed as Homo sapiens) [SEQ ID No. 26],–,–,–,++++ (>= 70% = ++++),+ (<20% = +)
RBPJ-001 (RYLHVEGGNF; listed as Homo sapiens),–,–,–,++ (20%-49% = ++),+ (<20% = +)
KYLEKYYNL (listed as Homo sapiens) [SEQ ID No. 30],–,–,–,++++ (>= 70% = ++++),++ (20%-49% = ++)
RFMDGHITF (listed as Homo sapiens) [SEQ ID No. 25],–,–,–,++ (20%-49% = ++),+ (<20% = +)
TYNPEIYVI (listed as Homo sapiens) [SEQ ID No. 35],–,–,–,++++ (>= 70% = ++++),++ (20%-49% = ++)
FKBP10-002 (TYIGQGYII; listed as Homo sapiens),–,–,–,++++ (>= 70% = ++++),+ (<20% = +)
SP14-001 (AYPDLNEIYRSF; listed as Homo sapiens),–,–,–,+ (<20% = +),+ (<20% = +)
HSPBP-001 (RYLEAGAAGLRW; listed as Homo sapiens),–,–,–,+ (<20% = +),+ (<20% = +)
